In US9695154B2, “Heteroaryl inhibitors of sumo activating enzyme” (MILLENNIUM PHARMACEUTICALS, INC., priority 2013, dated 2017) one finds IC50 and inhibition data, which are given here for 20 compounds.

The structures appear in SMILES notation.

A word on the IC50: it is the point on the concentration scale where inhibition reaches its midpoint. For orientation: inhibition means the percentage by which the read-out fell short of the control.

This experiment addresses T1, recombinant human SAE enzyme (Homo sapiens, UniProt Q9UBT2).
T1 sequence (Q9UBT2 1-640): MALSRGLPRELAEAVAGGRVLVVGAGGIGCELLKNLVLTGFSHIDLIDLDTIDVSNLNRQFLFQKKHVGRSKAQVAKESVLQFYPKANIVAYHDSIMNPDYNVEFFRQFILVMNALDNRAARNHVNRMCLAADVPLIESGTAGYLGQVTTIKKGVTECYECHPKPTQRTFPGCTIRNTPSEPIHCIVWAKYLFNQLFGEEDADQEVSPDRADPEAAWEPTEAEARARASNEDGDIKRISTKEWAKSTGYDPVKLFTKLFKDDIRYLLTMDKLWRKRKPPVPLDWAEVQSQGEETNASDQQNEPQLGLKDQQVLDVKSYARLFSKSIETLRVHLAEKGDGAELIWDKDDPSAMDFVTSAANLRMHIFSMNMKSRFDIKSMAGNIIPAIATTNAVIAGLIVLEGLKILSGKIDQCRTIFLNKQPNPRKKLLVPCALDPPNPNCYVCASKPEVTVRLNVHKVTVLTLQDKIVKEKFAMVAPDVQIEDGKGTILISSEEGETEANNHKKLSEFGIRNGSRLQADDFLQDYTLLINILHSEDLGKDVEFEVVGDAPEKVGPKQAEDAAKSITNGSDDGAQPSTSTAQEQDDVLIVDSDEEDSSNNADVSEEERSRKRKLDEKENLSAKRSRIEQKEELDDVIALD
T1 sequence (Q9UBE0 1-346 partner): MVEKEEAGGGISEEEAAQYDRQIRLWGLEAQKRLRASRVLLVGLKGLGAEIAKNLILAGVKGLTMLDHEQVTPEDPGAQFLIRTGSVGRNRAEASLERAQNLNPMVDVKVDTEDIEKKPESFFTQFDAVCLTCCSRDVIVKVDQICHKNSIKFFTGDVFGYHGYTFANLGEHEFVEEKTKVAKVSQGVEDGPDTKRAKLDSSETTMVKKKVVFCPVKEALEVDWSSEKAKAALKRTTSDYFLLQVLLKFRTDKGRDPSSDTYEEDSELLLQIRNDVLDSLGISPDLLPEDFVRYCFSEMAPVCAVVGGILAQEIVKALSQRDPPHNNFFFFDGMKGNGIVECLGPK
In words: SAE HTRF Enzyme Assay. To be noted: for IC50: class symbols A-C; for inhibition at 0.111 µM: compound concentration 0.111 μM, read-out: Percent Inhibition. The format is biochemical. In outline:
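SAE 0.11 nM; ATP 0.5 μM; Sumo-Flag 0.125 μM; Ubc9-GST 0.01 μM; 250 μM GSH, 5 mM MgCl2, pH 7.5. 105 min, 24° C. EDTA/KF stop plus Eu/APC antibodies, 2 h, TR-FRET. % inhibition or IC50.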
Background: In TR-FRET formats the signal depends on donor and acceptor labels being close together.

`NS(=O)(=O)OC[C@H]1C[C@@H](Nc2ncncc2C(=O)c2ccn(Cc3cc(F)c(F)c(F)c3)n2)[C@H](O)[C@@H]1O` [Compound I-326, {(1R,2R,3S,4R)-2,3-dihydroxy-4-[(5-{[1-(3,4,5-trifluorobenzyl)-1H-pyrazol-3-yl]carbonyl}pyrimidin-4-yl)amino]cyclopentyl}methyl sulfamate]: the concentration for half-maximal inhibition (IC50) is less than 10 nM and the inhibition at 0.111 µM was found to be 95%.

`NS(=O)(=O)OC[C@H]1C[C@@H](Nc2ncncc2C(=O)c2ccn(Cc3cccc(F)c3F)n2)[C@H](O)[C@@H]1O` [Compound I-327, {(1R,2R,3S,4R)-4-[(5-{[1-(2,3-difluorobenzyl)-1H-pyrazol-3-yl]carbonyl}pyrimidin-4-yl)amino]-2,3-dihydroxycyclopentyl}methyl sulfamate]: the IC50 was less than 10 nM and the inhibition at 0.111 µM came out at 99%.

Turning to `NS(=O)(=O)OC[C@H]1C[C@@H](Nc2ncncc2C(=O)c2ccn(Cc3ccc(F)cc3C(F)(F)F)n2)C[C@@H]1O` [Compound I-328, [(1R,2S,4R)-4-{[5-({1-[4-fluoro-2-(trifluoromethyl)benzyl]-1H-pyrazol-3-yl}carbonyl)pyrimidin-4-yl]amino}-2-hydroxycyclopentyl]methyl sulfamate], the IC50 was 10 to 100 nM and the inhibition at 0.111 µM came to 65%.

As for `NS(=O)(=O)OC[C@H]1C[C@@H](Nc2ncncc2C(=O)c2ccn(Cc3cc(F)c(F)cc3F)n2)C[C@@H]1O` [Compound I-329, {(1R,2S,4R)-2-hydroxy-4-[(5-{[1-(2,4,5-trifluorobenzyl)-1H-pyrazol-3-yl]carbonyl}pyrimidin-4-yl)amino]cyclopentyl}methyl sulfamate], the half-inhibitory concentration (IC50) is less than 10 nM and the inhibition at 0.111 µM was determined as 93%.

On to `C#CCn1ccc(C(=O)c2cncnc2N[C@@H]2C[C@H](COS(N)(=O)=O)[C@@H](O)C2)c1` [Compound I-330, {(1R,2S,4R)-2-hydroxy-4-[(5-{[1-{prop-2-yn-1-yl)-1H-pyrrol-3-yl]carbonyl}pyrimidin-4-yl)amino]cyclopentyl}methyl sulfamate], for which the 50% inhibitory concentration (IC50) fell in the range of 10 to 100 nM and the inhibition at 0.111 µM is 82%.

Consider `NS(=O)(=O)OC[C@H]1C[C@@H](Nc2ncncc2C(=O)c2ccn(Cc3ccc(Cl)c(Cl)c3)c2)[C@@H](F)[C@@H]1O` [Compound I-331, {(1R,2R,3R,4R)-4-[(5-{[1-(3,4-dichlorobenzyl)-1H-pyrrol-3-yl]carbonyl}pyrimidin-4-yl)amino]-3-fluoro-2-hydroxycyclopentyl}methyl sulfamate], for which the IC50 was less than 10 nM and the inhibition at 0.111 µM came out at 99%.

Turning to `NS(=O)(=O)OC[C@H]1C[C@@H](Nc2ncncc2C(=O)c2ccn(Cc3cccc(Br)c3)c2)C[C@@H]1O` [Compound I-333, {(1R,2S,4R)-4-[(5-{[1-(3-bromobenzyl)-1H-pyrrol-3-yl]carbonyl}pyrimidin-4-yl)amino]-2-hydroxycyclopentyl}methyl sulfamate], the IC50 was less than 10 nM and the inhibition at 0.111 µM turned out to be 99%.

`NS(=O)(=O)OC[C@H]1C[C@@H](Nc2ncncc2C(=O)c2ccn(Cc3cc(F)cc(Cl)c3)n2)[C@H](O)[C@@H]1O` [Compound I-334, {(1R,2R,3S,4R)-4-[(5-{[1-(3-chloro-5-fluorobenzyl)-1H-pyrazol-3-yl]carbonyl}pyrimidin-4-yl)amino]-2,3-dihydroxycyclopentyl}methyl sulfamate]: the 50% inhibitory concentration (IC50) was less than 10 nM and the inhibition at 0.111 µM worked out at 98%.

As for `NS(=O)(=O)OC[C@H]1C[C@@H](Nc2ncncc2C(=O)c2cc(CO)n(Cc3ccccc3)n2)C[C@@H]1O` [Compound I-335, {(1R,2S,4R)-4-[(5-{[1-Benzyl-5-(hydroxymethyl)-1H-pyrazol-3-yl]carbonyl}pyrimidin-4-yl)amino]-2-hydroxycyclopentyl}methyl sulfamate], the IC50 was less than 10 nM and the inhibition at 0.111 µM was determined as 97%.

On to `NS(=O)(=O)OC[C@H]1C[C@@H](Nc2ncncc2C(=O)c2ccn(Cc3ccc(F)cc3F)n2)[C@H](O)[C@@H]1O` [Compound I-336, {(1R,2R,3S,4R)-4-[(5-{[1-(2,4-difluorobenzyl)-1H-pyrazol-3-yl]carbonyl}pyrimidin-4-yl)amino]-2,3-dihydroxycyclopentyl}methyl sulfamate], for which the IC50 was less than 10 nM and the inhibition at 0.111 µM was 97%.

Consider `NS(=O)(=O)OC[C@H]1C[C@@H](Nc2ncncc2C(=O)c2ccn(Cc3ccc(Cl)c(Br)c3)c2)[C@@H](F)[C@@H]1O` [Compound I-337, {(1R,2R,3R,4R)-4-[(5-{[1-(3-bromo-4-chlorobenzyl)-1H-pyrrol-3-yl]carbonyl}pyrimidin-4-yl)amino]-3-fluoro-2-hydroxycyclopentyl}methyl sulfamate], for which the half-maximal inhibitory concentration (IC50) is less than 10 nM and the inhibition at 0.111 µM came out at 98%.

For the compound `NS(=O)(=O)OC[C@H]1C[C@@H](Nc2ncncc2C(=O)c2ccn(Cc3ccccc3F)n2)[C@H](O)[C@@H]1O` [Compound I-338, {(1R,2R,3S,4R)-4-[(5-{[1-(2-fluorobenzyl)-1H-pyrazol-3-yl]carbonyl}pyrimidin-4-yl)amino]-2,3-dihydroxycyclopentyl}methyl sulfamate], the IC50 was less than 10 nM and the inhibition at 0.111 µM is 99%.

With `CC#CCn1ccc(C(=O)c2cncnc2N[C@@H]2C[C@H](COS(N)(=O)=O)[C@@H](O)C2)c1` [Compound I-340, {(1R,2S,4R)-4-[(5-{[1-(but-2-yn-1-yl)-1H-pyrrol-3-yl]carbonyl}pyrimidin-4-yl)amino]-2-hydroxycyclopentyl}methyl sulfamate], the IC50 is less than 10 nM and the inhibition at 0.111 µM is 94%.

On to `NS(=O)(=O)OC[C@H]1C[C@@H](Nc2ncncc2C(=O)c2ccn(Cc3csc4ccc(Cl)cc34)c2)C[C@@H]1O` [Compound I-341, [(1R,2S,4R)-4-{[5-({1-[(5-chloro-1-benzothiophen-3-yl)methyl]-1H-pyrrol-3-yl}carbonyl)pyrimidin-4-yl]amino}-2-hydroxycyclopentyl]methyl sulfamate], for which the IC50 is less than 10 nM and the inhibition at 0.111 µM stood at 98%.

Take `NS(=O)(=O)OC[C@@H]1C[C@@H](Nc2ncncc2C(=O)c2ccn(Cc3ccccc3)n2)C[C@@H]1O` [Compound I-342, [(1S,2S,4R)-4-({5-[(1-benzyl-1H-pyrazol-3-yl)carbonyl]pyrimidin-4-yl}amino)-2-hydroxycyclopentyl]methyl sulfamate]: the half-inhibitory concentration (IC50) fell in the range of 10 to 100 nM and the inhibition at 0.111 µM is 79%.

Consider `NS(=O)(=O)OC[C@H]1C[C@@H](Nc2ncncc2C(=O)c2ccn(Cc3ccc(F)c(C(F)(F)F)c3)n2)[C@H](O)[C@@H]1O` [Compound I-343, [(1R,2R,3S,4R)-4-{[5-({1-[4-fluoro-3-(trifluoromethyl)benzyl]-1H-pyrazol-3-yl}carbonyl)pyrimidin-4-yl]amino}-2,3-dihydroxycyclopentyl]methyl sulfamate], for which the IC50 is less than 10 nM and the inhibition at 0.111 µM was 97%.

Turning to `CC(C)=C(C)n1ccc(C(=O)c2cncnc2N[C@@H]2C[C@H](COS(N)(=O)=O)[C@@H](O)C2)n1` [Compound I-344, {(1R,2S,4R)-2-hydroxy-4-[(5-{[1-(3-methylbut-2-en-2-yl)-1H-pyrazol-3-yl]carbonyl}pyrimidin-4-yl)amino]cyclopentyl}methyl sulfamate], the IC50 lay within 10 to 100 nM and the inhibition at 0.111 µM was 77%.

Consider `Cn1ccc(C(=O)c2cncnc2N[C@@H]2C[C@H](COS(N)(=O)=O)[C@@H](O)[C@H]2O)n1` [Compound I-345, [(1R,2R,3S,4R)-2,3-dihydroxy-4-({5-[(1-methyl-1H-pyrazol-3-yl)carbonyl]pyrimidin-4-yl}amino)cyclopentyl]methyl sulfamate], for which the 50% inhibitory concentration (IC50) is 100 to 1000 nM and the inhibition at 0.111 µM was found to be 54%.

Turning to `NS(=O)(=O)OC[C@H]1C[C@@H](Nc2ncncc2C(=O)c2ccn(Cc3cc(Br)ccc3F)n2)C[C@@H]1O` [Compound I-346, {(1R,2S,4R)-4-[(5-{[1-(5-bromo-2-fluorobenzyl)-1H-pyrazol-3-yl]carbonyl}pyrimidin-4-yl)amino]-2-hydroxycyclopentyl}methyl sulfamate], the IC50 was less than 10 nM and the inhibition at 0.111 µM was 100%.

Consider `Cc1cc(C(=O)c2cncnc2N[C@@H]2C[C@H](COS(N)(=O)=O)[C@@H](O)C2)nn1Cc1cccc(I)c1` [Compound I-347, {(1R,2S,4R)-2-hydroxy-4-[(5-{[1-(3-iodobenzyl)-5-methyl-1H-pyrazol-3-yl]carbonyl}pyrimidin-4-yl)amino]cyclopentyl}methyl sulfamate], for which the IC50 was less than 10 nM and the inhibition at 0.111 µM was more than 99%.
